Key:
[1] = system: rice; assay: Test D flooded paddy test; type: in vivo, Oryza sativa; conditions: 250 g ai/ha, applied to paddy water, visual rating after 13 to 14 days, scale 0 to 100 (0 no effect, 100 complete control)
Summary of the method: (§1)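 Plants grown to the 2-leaf stage; pots flooded to 3 cm above soil at treatment and held at that depth throughout. Test compounds applied directly to the paddy water. After 13 to 14 days in a greenhouse, response was rated visually versus controls on a 0 (no effect) to 100 (complete control) scale.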

[2] = system: ragweed; assay: Test C preemergence; type: in vivo, Ambrosia artemisiifolia; conditions: 0 to 100 scale (0 no effect, 100 complete control); for Ragweed plant response rating: preemergence
Summary of the method: (§2)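 Seeds in loam–sand blend received preemergence directed soil spray of test chemicals in non-phytotoxic solvent with surfactant; postemergence treatment was applied at one- to two-leaf stage (2–10 cm). After 10 days in greenhouse, injury rated visually versus untreated controls, 0 (no effect) to 100 (complete control).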

[3] = system: oat, wild; assay: Test C postemergence; type: in vivo, Avena fatua; conditions: 10 days
Summary of the method: as §2

[4] = system: blackgrass; assay: Test C postemergence; type: in vivo, Alopecurus myosuroides; conditions: 10 days
Summary of the method: as §2

[5] = system: green foxtail; assay: Test C preemergence; type: in vivo, Setaria viridis; conditions: 0 to 100 scale (0 no effect, 100 complete control); for Foxtail, Green plant response rating: preemergence
Summary of the method: as §2

[6] = system: ducksalad; assay: Test D flooded paddy test; type: in vivo, Heteranthera limosa; conditions: 250 g ai/ha, applied to paddy water, visual rating after 13 to 14 days, scale 0 to 100 (0 no effect, 100 complete control)
Summary of the method: as §1

[7] = system: barnyardgrass; assay: Test C postemergence; type: in vivo, Echinochloa crusgalli; conditions: 10 days
Summary of the method: as §2

[8] = system: wheat; assay: Test C postemergence; type: in vivo, Triticum aestivum; conditions: 10 days
Summary of the method: as §2

[9] = system: pigweed, palmer; assay: Test C preemergence; type: in vivo, Amaranthus palmeri; conditions: 0 to 100 scale (0 no effect, 100 complete control); for Pigweed, Palmer plant response rating: preemergence
Summary of the method: as §2

[10] = system: ryegrass, Italian; assay: Test C postemergence; type: in vivo, Lolium multiflorum; conditions: 10 days
Summary of the method: as §2

[11] = system: barnyardgrass; assay: Test D flooded paddy test; type: in vivo, Echinochloa crus-galli; conditions: 250 g ai/ha, applied to paddy water, visual rating after 13 to 14 days, scale 0 to 100 (0 no effect, 100 complete control)
Summary of the method: as §1

[12] = system: ryegrass, Italian; assay: Test C preemergence; type: in vivo, Lolium multiflorum; conditions: 0 to 100 scale (0 no effect, 100 complete control); for Ryegrass, Italian plant response rating: preemergence
Summary of the method: as §2

[13] = system: kochia; assay: Test C postemergence; type: in vivo, Bassia scoparia; conditions: 10 days
Summary of the method: as §2

[14] = system: galium; assay: Test C postemergence; type: in vivo, Galium aparine; conditions: 10 days
Summary of the method: as §2

[15] = system: sedge, umbrella; assay: Test D flooded paddy test; type: in vivo, Cyperus difformis; conditions: 250 g ai/ha, applied to paddy water, visual rating after 13 to 14 days, scale 0 to 100 (0 no effect, 100 complete control)
Summary of the method: as §1

[16] = system: kochia; assay: Test C preemergence; type: in vivo, Bassia scoparia; conditions: 0 to 100 scale (0 no effect, 100 complete control); for Kochia plant response rating: preemergence
Summary of the method: as §2

[17] = system: soybean; assay: Test C postemergence; type: in vivo, Glycine max; conditions: 10 days
Summary of the method: as §2

[18] = system: wheat; assay: Test C preemergence; type: in vivo, Triticum aestivum; conditions: 0 to 100 scale (0 no effect, 100 complete control); for Wheat plant response rating: preemergence
Summary of the method: as §2

[19] = system: ragweed; assay: Test C postemergence; type: in vivo, Ambrosia artemisiifolia; conditions: 10 days
Summary of the method: as §2

[20] = system: corn; assay: Test C postemergence; type: in vivo, Zea mays; conditions: 10 days
Summary of the method: as §2

[21] = system: green foxtail; assay: Test C postemergence; type: in vivo, Setaria viridis; conditions: 10 days
Summary of the method: as §2

[22] = system: corn; assay: Test C preemergence; type: in vivo, Zea mays; conditions: 0 to 100 scale (0 no effect, 100 complete control); for Corn plant response rating: preemergence
Summary of the method: as §2

[23] = system: horseweed; assay: Test C postemergence; type: in vivo, Erigeron canadensis; conditions: 10 days
Summary of the method: as §2

[24] = system: soybean; assay: Test C preemergence; type: in vivo, Glycine max; conditions: 0 to 100 scale (0 no effect, 100 complete control); for Soybean plant response rating: preemergence
Summary of the method: as §2

[25] = system: blackgrass; assay: Test C preemergence; type: in vivo, Alopecurus myosuroides; conditions: 0 to 100 scale (0 no effect, 100 complete control); for Blackgrass plant response rating: preemergence
Summary of the method: as §2

[26] = system: oat, wild; assay: Test C preemergence; type: in vivo, Avena fatua; conditions: 0 to 100 scale (0 no effect, 100 complete control); for Oat, Wild plant response rating: preemergence
Summary of the method: as §2

[27] = system: barnyardgrass; assay: Test C preemergence; type: in vivo, Echinochloa crusgalli; conditions: 0 to 100 scale (0 no effect, 100 complete control); for Barnyardgrass plant response rating: preemergence
Summary of the method: as §2

[28] = system: pigweed, palmer; assay: Test C postemergence; type: in vivo, Amaranthus palmeri; conditions: 10 days
Summary of the method: as §2

[29] = Preemergence, 500 g ai/ha, visual rating after 10 days
[30] = 125 g ai/ha, postemergence, 0 to 100 scale, 0 no effect, 100 complete control
[31] = Postemergence, 500 g ai/ha, visual 0 to 100 scale (0 no effect, 100 complete control)
[32] = 500 g ai/ha, postemergence, 0 to 100 scale (0 no effect, 100 complete control)
[33] = Postemergence, 125 g ai/ha, 0 to 100 scale (0 no effect, 100 complete control)

Cc1ccc(-n2cnc(C(C)C)n2)cc1C(=O)N1C[C@H](C)Oc2c1cccc2C(F)(F)F [Compound 170]
Plant response rating, Rice (Flood) [1]: 15
Plant response rating, Ragweed [2, 29]: 70
Ragweed plant response rating ([2]; Test C, 125 g ai/ha): 20
Plant response rating, Oat, Wild [3, 30]: 20
Plant response rating, Oat, Wild [3, 31]: 60
Plant response rating, Blackgrass [4, 30]: 30
Plant response rating, Blackgrass [4, 31]: 80
Plant response rating, Foxtail, Green [5, 29]: 100
Foxtail, Green plant response rating ([5]; Test C, 125 g ai/ha): 100
Plant response rating, Ducksalad (Flood) [6]: 55
Plant response rating, Barnyardgrass [7, 30]: 20
Plant response rating, Barnyardgrass [7, 31]: 50
Plant response rating, Wheat [8, 30]: 10
Plant response rating, Wheat [8, 31]: 50
Plant response rating, Pigweed, Palmer [9, 29]: 100
Pigweed, Palmer plant response rating ([9]; Test C, 125 g ai/ha): 100
Plant response rating, Ryegrass, Italian [10, 30]: 60
Plant response rating, Ryegrass, Italian [10, 31]: 90
Plant response rating, Barnyardgrass (Flood) [11]: 0
Plant response rating, Ryegrass, Italian [12, 29]: 100
Ryegrass, Italian plant response rating ([12]; Test C, 125 g ai/ha): 80
Plant response rating, Kochia [13, 30]: 80
Plant response rating, Kochia [13, 31]: 100
Plant response rating, Galium [14, 30]: 100
Plant response rating, Galium [14, 31]: 100
Plant response rating, Sedge, Umbrella (Flood) [15]: 95
Plant response rating, Kochia [16, 29]: 100
Kochia plant response rating ([16]; Test C, 125 g ai/ha): 90
Plant response rating, Soybean [17, 30]: 100
Plant response rating, Soybean [17, 31]: 100
Plant response rating, Wheat [18, 29]: 90
Wheat plant response rating ([18]; Test C, 125 g ai/ha): 50
Plant response rating, Ragweed [19, 30]: 70
Plant response rating, Ragweed [19, 31]: 90
Plant response rating, Corn [20, 30]: 30
Plant response rating, Corn [20, 31]: 50
Plant response rating, Foxtail, Green [21, 30]: 20
Plant response rating, Foxtail, Green [21, 31]: 90
Plant response rating, Corn [22, 29]: 20
Corn plant response rating ([22]; Test C, 125 g ai/ha): 20
Plant response rating, Horseweed [23, 30]: 80
Plant response rating, Horseweed [23, 31]: 90
Plant response rating, Soybean [24, 29]: 100
Soybean plant response rating ([24]; Test C, 125 g ai/ha): 70
Plant response rating, Blackgrass [25, 29]: 80
Blackgrass plant response rating ([25]; Test C, 125 g ai/ha): 50
Plant response rating, Oat, Wild [26, 29]: 80
Oat, Wild plant response rating ([26]; Test C, 125 g ai/ha): 60
Plant response rating, Barnyardgrass [27, 29]: 100
Barnyardgrass plant response rating ([27]; Test C, 125 g ai/ha): 90
Plant response rating, Pigweed, Palmer [28, 30]: 100
Plant response rating, Pigweed, Palmer [28, 31]: 100

Cc1cccc2c1OC(C(F)(F)F)CN2C(=O)c1cccc(-n2cnc(C(C)C)n2)c1 (single isomer, unassigned) [Compound 303]
Plant response rating, Rice (Flood) [1]: 0
Ragweed plant response rating ([2]; 500 g ai/ha): 70
Ragweed plant response rating ([2]; Test C, 125 g ai/ha): 0
Plant response rating, Oat, Wild [3, 32]: 70
Plant response rating, Oat, Wild [3, 33]: 50
Plant response rating, Blackgrass [4, 32]: 100
Plant response rating, Blackgrass [4, 33]: 90
Foxtail, Green plant response rating ([5]; 500 g ai/ha): 100
Foxtail, Green plant response rating ([5]; Test C, 125 g ai/ha): 100
Plant response rating, Ducksalad (Flood) [6]: 80
Plant response rating, Barnyardgrass [7, 32]: 70
Plant response rating, Barnyardgrass [7, 33]: 20
Plant response rating, Wheat [8, 32]: 50
Plant response rating, Wheat [8, 33]: 30
Pigweed, Palmer plant response rating ([9]; 500 g ai/ha): 100
Pigweed, Palmer plant response rating ([9]; Test C, 125 g ai/ha): 100
Plant response rating, Ryegrass, Italian [10, 32]: 90
Plant response rating, Ryegrass, Italian [10, 33]: 60
Plant response rating, Barnyardgrass (Flood) [11]: 0
Ryegrass, Italian plant response rating ([12]; 500 g ai/ha): 100
Ryegrass, Italian plant response rating ([12]; Test C, 125 g ai/ha): 90
Plant response rating, Kochia [13, 32]: 80
Plant response rating, Kochia [13, 33]: 70
Plant response rating, Galium [14, 32]: 100
Plant response rating, Galium [14, 33]: 100
Plant response rating, Sedge, Umbrella (Flood) [15]: 90
Kochia plant response rating ([16]; 500 g ai/ha): 100
Kochia plant response rating ([16]; Test C, 125 g ai/ha): 70
Plant response rating, Soybean [17, 32]: 100
Plant response rating, Soybean [17, 33]: 100
Wheat plant response rating ([18]; 500 g ai/ha): 100
Wheat plant response rating ([18]; Test C, 125 g ai/ha): 70
Plant response rating, Ragweed [19, 32]: 60
Plant response rating, Ragweed [19, 33]: 50
Plant response rating, Corn [20, 32]: 80
Plant response rating, Corn [20, 33]: 20
Plant response rating, Foxtail, Green [21, 32]: 80
Plant response rating, Foxtail, Green [21, 33]: 50
Corn plant response rating ([22]; 500 g ai/ha): 50
Corn plant response rating ([22]; Test C, 125 g ai/ha): 0
Plant response rating, Horseweed [23, 32]: 20
Plant response rating, Horseweed [23, 33]: 0
Soybean plant response rating ([24]; 500 g ai/ha): 100
Soybean plant response rating ([24]; Test C, 125 g ai/ha): 30
Blackgrass plant response rating ([25]; 500 g ai/ha): 100
Blackgrass plant response rating ([25]; Test C, 125 g ai/ha): 90
Oat, Wild plant response rating ([26]; 500 g ai/ha): 90
Oat, Wild plant response rating ([26]; Test C, 125 g ai/ha): 50
Barnyardgrass plant response rating ([27]; 500 g ai/ha): 100
Barnyardgrass plant response rating ([27]; Test C, 125 g ai/ha): 40
Plant response rating, Pigweed, Palmer [28, 32]: 80
Plant response rating, Pigweed, Palmer [28, 33]: 40

Source: patent publication US20260262643A1, “HERBICIDAL BENZOXAZINES” (FMC CORPORATION, priority 2022, published 2026)
